Results: US20240425524A1, “SPIROTRICYCLE RIPK1 INHIBITORS AND METHODS OF USES THEREOF” (Merck Sharp & Dohme LLC, priority 2021, published 2024)

Biological target: RIPK1 (Homo sapiens (Human), UniProt Q13546)
Assay: RIPK1-ADP-Glo Enzymatic Assay
Assay type: biochemical
Conditions: recombinant GST-RIPK1 kinase domain (residues 1-327), 25 nM, ten-point titration, 30 minutes pre-incubation
Summary of the method: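 GST-RIPK1 kinase domain (residues 1-327, Sf21-expressed; 25 nM final) was pre-incubated 30 min at ambient temperature with compound (10-point 1:3 series from 100000 nM, 1% DMSO) in HEPES pH 7.3 buffer with 20 mM MgCl2. The reaction was started with 900 μM ATP (addition solution) and 3 μM dephosphorylated MBP and ran 150 min. Read-out was ADP-Glo luminescence, with EC50 from a four-parameter fit.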

Chain of RIPK1 (Q13546 1-327): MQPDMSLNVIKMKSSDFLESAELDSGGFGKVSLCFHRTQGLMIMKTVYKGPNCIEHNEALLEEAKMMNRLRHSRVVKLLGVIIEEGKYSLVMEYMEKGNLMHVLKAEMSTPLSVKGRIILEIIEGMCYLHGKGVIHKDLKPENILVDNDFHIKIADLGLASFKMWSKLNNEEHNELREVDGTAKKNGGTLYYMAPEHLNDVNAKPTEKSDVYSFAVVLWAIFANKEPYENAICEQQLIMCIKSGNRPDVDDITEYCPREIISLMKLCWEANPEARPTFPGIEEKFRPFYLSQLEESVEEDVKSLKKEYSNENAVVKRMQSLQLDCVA

Compound | EC50
O=C1N2[C@H](c3cc(F)cc(F)c3)CCN2CC12CCN(c1cccc3ccnn13)CC2 [Example 8.2, (S)-7′-(3,5-difluorophenyl)-1-(pyrazolo[1,5-α]pyridin-7-yl) dihydro-1′H,3′H,5′H-spiro [piperidine-4,2′-pyrazolo[1,2-α]pyrazol]-1′-one] | 34 nM
Cc1ccc(N2CCC3(CC2)CN2CC[C@@H](c4cc(F)cc(F)c4)N2C3=O)n2nccc12 [Example 9.1, (S)-7′-(3,5-difluorophenyl)-1-(4-methylpyrazolo[1,5-α]pyridin-7-yl) dihydro-1′H,3′H,5′H-spiro [piperidine-4,2′-pyrazolo[1,2-α]pyrazol]-1′-one] | 17 nM
O=C1N2[C@H](c3cc(F)cc(F)c3)CCN2CC12CCN(c1cccc(F)c1)CC2 [Example 10.1, (S)-7′-(3,5-difluorophenyl)-1-(3-fluorophenyl) dihydro-1′H,3′H,5′H-spiro [piperidine-4,2′-pyrazolo[1,2-α]pyrazol]-1′-one] | 47 nM
O=C1N2[C@H](c3cc(F)cc(F)c3)CCN2CC12CCN(c1cncc(F)c1)CC2 [Example 10.2, (S)-7′-(3,5-difluorophenyl)-1-(5-fluoropyridin-3-yl)dihydro-1′H,3′H,5′H-spiro[piperidine-4,2′-pyrazolo[1,2-a]pyrazol]-l′-one] | 338 nM
O=C1N2[C@H](c3cc(F)cc(F)c3)CCN2CC12CCN(c1ccc(F)cc1)CC2 [Example 10.3, (S)-7′-(3,5-difluorophenyl)-1-(4-fluorophenyl)dihydro-1′H,3′H,5′H-spiro[piperidine-4,2′-pyrazolo[1,2-a]pyrazol]-l′-one] | 122 nM
Cc1nc(N2CCC3(CC2)CN2CC[C@@H](c4cc(F)cc(F)c4)N2C3=O)ccc1Cl [Example 11.1, (S)-1-(5-chloro-6-methylpyridin-2-yl)-7′-(3,5-difluorophenyl) dihydro-1′H,3′H,5′H-spiro [piperidine-4,2′-pyrazolo[1,2-α]pyrazol]-1′-one] | 23 nM
Cc1nc(N2CCC3(CC2)CN2CC[C@@H](c4cc(F)cc(F)c4)N2C3=O)ccc1F [Example 11.2, (S)-7′-(3,5-difluorophenyl)-1-(5-fluoro-6-methylpyridin-2-yl)dihydro-1′H,3′H,5′H-spiro[piperidine-4,2′-pyrazolo[1,2-a]pyrazol]-l′-one] | 43 nM
